US11331295B2, “High-dose statins for age-related macular degeneration” (MASSACHUSETTS EYE AND EAR INFIRMARY, priority 2015, dated 2022)
Like-named read-outs stand apart in the source and are kept apart here.

How the values were obtained:
[1] = system: patient with AMD (large soft drusen); assay: Report of initial case: 80 mg atorvastatin daily in a patient with AMD; assay type: in vivo, human
Protocol: (§1) A case report and pilot multi-center prospective interventional study were conducted with IRB approval. Inclusion criteria were patients over the age of 50 with diagnosis of AMD and the presence of many large, soft drusen/drusenoid PEDs in both eyes. […] Pseudophakia was not a reason for exclusion, unless accompanied by significant posterior capsular opacity.
An otherwise healthy person with AMD presented deteriorating visual acuity. Their baseline visual acuity was 20/25 with significant distortion; they were already taking Age-Related Eye Disease Study (AREDS) supplementation. […] Spectral domain optical coherence tomography (SD-OCT) confirmed the significant extent of these deposits and pigment epithelial detachments as well as the overlying RPE and photoreceptor architectural distortion (FIG. 2, top row). No subretinal or intraretinal fluid was present. Standard AREDS supplementation was continued. […]

[2] = system: patients with AMD with many large, soft drusen/drusenoid PEDs
Protocol: as §1

ARPE-19 cells = assay: Phagocytosis analysis by flow cytometry (fluorescent carboxylate microspheres); assay type: cell-based, human; conditions: 6 hours; for percentage of phagocytic ARPE-19 cells: DMSO control 31%; for mean fluorescence intensity of cells: control 340; for percentage of ARPE-19 phagocytic cells / mean fluorescence intensity (phagocytic index): 50 μM statin; for percentage of ARPE-19 phagocytic cells: control 31%; for mean fluorescence intensity (phagocytic index): control 332
Protocol: A flow cytometric assay was used to evaluate cell phagocytosis according to a protocol described by Pranab (Mukherjee et al., 2007 Proc Natl Acad Sci USA 104:13158-63). Briefly, ARPE-19 cells were seeded in 12-well plates and cultured until 90% confluent. […] After incubation, cells were washed with PBS three times to remove any extracellular beads, then trypsinized (0.25% trypsin-EDTA, Gibco, US) for 1 minute, and neutralized with pre-warmed culture medium. The cell suspension was collected and centrifuged (241 g, 5 minutes). The cell pellet was re-suspended in 0.5 ml PBS for each sample. Subsequently, the cells were analyzed for green phagocytized fluorescent beads (excitation wavelength of 441 nm and emission wavelength of 486 nm) by a FACScalibur flow cytometer using the CellQuest 3.0.1 (Becton & Dickinson, Mountain View, Calif., US) and FlowJo 10.0 software. The percent of phagocytic cells present in each group was recorded as well as the mean fluorescence intensity of engulfed particles.
The percentage of phagocytic ARPE-19 cells and the mean fluorescence intensity of engulfed particles per group were measured by flow cytometry 6 hours after treatment.
Vavvas et al., 2016 EBioMedicine 5:198-203). […] The effects of cholesterol crystals and ox-LDL on the phagocytic function of RPE cells were studied because impairment of this function is linked to AMD (Nandrot et al., 2007 Adv Exp Med Biol 801:978-1). ARPE-19 cells were treated with 2 mg/ml cholesterol crystals for 6 hours, or 300 μg/ml oxLDL for 18 hours. The phagocytic function was then assessed by flow cytometry, as described in the methods.

IL-6 = IL-6 secretion from ARPE-19 cells (western blot of culture medium); assay type: cell-based, human
Protocol: (§2) ARPE-19 cells were seeded in 6-well plates at a density of 1×10^5 cells/well. […] The membrane was then washed and incubated with secondary antibodies. The membrane was developed with enhanced chemiluminescence. The intensity of protein bands was measured using the software Image Lab 4.1 (Bio-Rad, Hercules, Calif., US).
Cholesterol crystals induce the secretion of the inflammatory cytokines IL-6 and IL-8 in ARPE-19 cells (Hu et al., 2014 Discovery Med. 18(97):7-14). […] The levels of IL-6 and IL-8 were evaluated using western blot or ELISA. As expected, cholesterol crystals increased ARPE-19 secretion of IL-6 and IL-8, 3.2- and 2.5-fold, respectively, compared to control treatment (FIGS. 7A and B). […] Similar to cholesterol crystals, incubation of ARPE-19 with ox-LDL led to a 2.6- and 1.3-fold increase in secreted IL-6 and IL-8, respectively.

IL-8 = IL-8 secretion from ARPE-19 cells (western blot / ELISA); assay type: cell-based, human
Protocol: as §2
IL-8 induced by oxLDL was measured by analysis of conditioned media of ARPE-19 cells using an ELISA kit (IL-8, R&D Systems, Minneapolis, Minn., US) according to the manufacturer's instructions.
Cholesterol crystals induce the secretion of the inflammatory cytokines IL-6 and IL-8 in ARPE-19 cells (Hu et al., 2014 Discovery Med. 18(97):7-14). […] The levels of IL-6 and IL-8 were evaluated using western blot or ELISA. As expected, cholesterol crystals increased ARPE-19 secretion of IL-6 and IL-8, 3.2- and 2.5-fold, respectively, compared to control treatment (FIGS. 7A and B). […]. […].

[3] = six months after 80 mg atorvastatin
[4] = 50 μM atorvastatin, 300 μg/ml ox-LDL 18 hours
[5] = 50 μM atorvastatin, cholesterol crystals

For `CC(C)c1c(C(=O)Nc2ccccc2)c(-c2ccccc2)c(-c2ccc(F)cc2)n1CC[C@@H](O)C[C@@H](O)CC(=O)O` [atorvastatin], the “visual acuity improved by” value ([1]; person with AMD, six months after 80 mg atorvastatin daily) was 12 letters, the “atrophy of the RPE (SD-OCT)” value [1, 3] was “without accompanying atrophy of the RPE” and the “drusen (fundus examination and SD-OCT)” value [1, 3] was “complete disappearance of the drusen”. The visual acuity ([1]; six months after 80 mg atorvastatin daily, 20/30 before treatment) was 20/20, the “Chol. Reduction” value ([2]; All (n = 23)) was −62 +/− 35 and the “Last VA (letters)” value ([2]; All (n = 23), initial 77.6 +/- 8.3) was 77.7 +/− 8.4 letters. The “Last Cholesterol” value ([2]; All (n = 23), initial 208 +/- 34.9) was 147 +/− 31, the “Chol. Reduction” value ([2]; Non Responders (n = 13)) was 71 +/− 35.9 and the “VA gain (loss)” value ([2]; Non Responders (n = 13)) was −2.3. The “Last VA (letters)” value ([2]; Non Responders (n = 13), initial 80.2 +/- 6) was 77.9 +/− 7.1 letters, the “Last Cholesterol” value ([2]; Non Responders (n = 13), initial 207 +/- 37.4) was 136 +/− 24.4 and the “Chol. Reduction” value ([2]; Responders (n = 10)) was 49 +/− 31.2. The “VA gain (loss)” value ([2]; Responders (n = 10)) was “+3.3”, the “Last VA (letters)” value ([2]; Responders (n = 10), initial 74.2 +/- 9.9) was 77.5 +/− 10.3 letters and the “Last Cholesterol” value ([2]; Responders (n = 10), initial 210 +/- 33.4) was 161 +/− 34.2. The “patients showing near-complete regression of drusen deposits” value ([2]; among 23 patients who completed) was “eight”, the “effect on progression of pigmentary changes or of pre-existing atrophy” value ([2]; high-dose atorvastatin) was “did not appear to have a positive or negative effect” and the “letters lost on average” value ([2]; non-responders) was 2.2 letters. For the same molecule, the “patients who exited the study (cramps, muscle aches, hair loss)” value ([2]; of 26 patients enrolled) was “Three”, the “patients who responded to the treatment (regression of drusen deposits)” value ([2]; patients who completed the pilot study) was “Ten of 23” and the “average time to response” value ([2]; responders) was 11.7 months. For the same molecule, the “letters gained on average” value ([2]; responders) was 3 letters, the “time to response, range” value ([2]; responders) was 3-22 months and the “percentage of phagocytic ARPE-19 cells” value (ARPE-19 cells; 1 μM atorvastatin) was 35%. The “mean fluorescence intensity of cells” value (ARPE-19 cells; 1 μM atorvastatin) was 368, the “percentage of phagocytic ARPE-19 cells” value (ARPE-19 cells; 25 μM atorvastatin) was 40% and the “mean fluorescence intensity of cells” value (ARPE-19 cells; 25 μM atorvastatin) was 443. The “decrease in mean fluorescence intensity induced by ox-LDL” value (ARPE-19 cells; [4]) was “completely reversed”, the “decrease in the percentage of phagocytic cells induced by ox-LDL” value (ARPE-19 cells; [4]) was “completely reversed” and the “percentage of phagocytic ARPE-19 cells” value (ARPE-19 cells; 50 μM atorvastatin) was 42%. For the same molecule, the “decrease in mean fluorescence intensity induced by cholesterol crystals” value (ARPE-19 cells; [5]) was “completely reversed”, the “decrease in the percentage of phagocytic cells induced by cholesterol crystals” value (ARPE-19 cells; [5]) was “completely reversed” and the “mean fluorescence intensity of cells” value (ARPE-19 cells; 50 μM atorvastatin) was 453. The “percentage of ARPE-19 phagocytic cells” value (ARPE-19 cells) was 43%, the “percentage of phagocytic ARPE-19 cells” value (ARPE-19 cells; 75 μM atorvastatin) was 46% and the “mean fluorescence intensity of cells” value (ARPE-19 cells; 75 μM atorvastatin) was 467. For the same molecule, the “levels of IL-6 compared to control” value (IL-6; 0.1 μM atorvastatin pretreatment, cholesterol crystals (3.2-fold alone)) was 1.7 fold, the “levels of IL-6 compared to control” value (IL-6; 0.1 μM atorvastatin pretreatment, ox-LDL (2.6-fold alone)) was 1.9 fold and the “levels of IL-6 compared to control” value (IL-6; 0.5 μM atorvastatin pretreatment, ox-LDL (2.6-fold alone)) was 1.3 fold. For the same molecule, the “levels of IL-6 compared to control” value (IL-6; 1 μM atorvastatin pretreatment, cholesterol crystals (3.2-fold alone)) was 0.8 fold, the “levels of IL-6 compared to control” value (IL-6; 1 μM atorvastatin pretreatment, ox-LDL (2.6-fold alone)) was 1.4 fold and the “levels of IL-8 compared to control” value (IL-8; 0.1 μM atorvastatin pretreatment, cholesterol crystals (2.5-fold alone), western blot) was 1.8 fold. For the same molecule, the “levels of IL-8 compared to control” value (IL-8; 0.1 μM atorvastatin pretreatment, ox-LDL (1.3-fold alone), ELISA) was 1.2 fold, the “levels of IL-8 compared to control” value (IL-8; 0.5 μM atorvastatin pretreatment, cholesterol crystals (2.5-fold alone), western blot) was 1.6 fold and the “levels of IL-8 compared to control” value (IL-8; 0.5 μM atorvastatin pretreatment, ox-LDL (1.3-fold alone), ELISA) was 1.02 fold. The “levels of IL-8 compared to control” value (IL-8; 1 μM atorvastatin pretreatment, cholesterol crystals (2.5-fold alone), western blot) was 1.1 fold and the “levels of IL-8 compared to control” value (IL-8; 1 μM atorvastatin pretreatment, ox-LDL (1.3-fold alone), ELISA) was 0.99 fold.
For `CC[C@H](C)C(=O)O[C@H]1C[C@@H](C)C=C2C=C[C@H](C)[C@H](CC[C@@H]3C[C@@H](O)CC(=O)O3)[C@H]21` [lovastatin], the “percentage of ARPE-19 phagocytic cells” value (ARPE-19 cells) was 53% and the “mean fluorescence intensity (phagocytic index)” value (ARPE-19 cells) was 502.
With `CCC(C)(C)C(=O)O[C@H]1C[C@@H](C)C=C2C=C[C@H](C)[C@H](CC[C@@H]3C[C@@H](O)CC(=O)O3)[C@H]21` [simvastatin] the “percentage of ARPE-19 phagocytic cells” value (ARPE-19 cells) was 56% and the “mean fluorescence intensity (phagocytic index)” value (ARPE-19 cells) was 513.
